Test results taken from patent US5534521A, “Benzimidazole compounds” (G. D. Searle & Co., priority 1994, dated 1996).

Assays:
5-HT4 receptor = molecular target: T1, 5-HT4 receptor (Rattus norvegicus, UniProt Q62758); assay: cell-based; details: carbachol (3 μM) contracted rat tunica muscularis mucosae, 37° C., cumulative addition, tissues from 5 rats; read-out: 5-HT4 Agonism (Rat TMM) In Vitro Assay: EC50 Values
T1 construct: One 2 cm segment of intrathoracic esophagus proximal to the diaphragm was removed from male rats; from tissue; host or cells: rat intrathoracic esophagus, inner tunica muscularis mucosae (male rats)
T1 sequence (Q62758 whole entry): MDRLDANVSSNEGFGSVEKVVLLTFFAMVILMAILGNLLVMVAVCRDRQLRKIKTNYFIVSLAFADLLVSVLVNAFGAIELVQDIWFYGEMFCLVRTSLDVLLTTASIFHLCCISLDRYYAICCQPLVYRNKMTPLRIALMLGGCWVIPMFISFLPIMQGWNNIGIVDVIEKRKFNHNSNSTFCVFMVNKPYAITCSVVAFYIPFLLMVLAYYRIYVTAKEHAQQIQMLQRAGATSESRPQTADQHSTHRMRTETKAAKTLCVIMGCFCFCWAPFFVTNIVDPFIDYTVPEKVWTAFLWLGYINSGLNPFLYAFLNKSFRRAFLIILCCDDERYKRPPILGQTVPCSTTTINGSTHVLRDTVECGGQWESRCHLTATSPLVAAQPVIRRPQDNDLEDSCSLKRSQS
Procedure: (§1) 5-HT4 agonist activity was determined in the in vitro rat tunica muscularis mucosae (TMM) assay. (Baxter et al., Naunyn Schmied Arch. Pharmacol, 1991, 343, 439). The 5-HT4 agonist or antagonist activity and/or 5-HT3 antagonist activity of the compounds of the invention herein, can be determined by the assays as described herein, without undue experimention.
Agonist activity was determined utilizing relaxation of carbachol-contracted rat tunica muscularis mucosae. One 2 cm segment of intrathoracic esophagus proximal to the diaphragm was removed from male rats, weighing approximately 300 gm, and the outer muscle layers removed. The inner tunica muscularis mucosa was mounted under 0.2-0.3 g of tension in a tissue bath containing oxygenated Tyrode's solution at 37° C. […] Following a 30 min equilibrium period, tissues were isometrically contracted with carbachol (3 μM) to obtain a tonic contraction. A stable plateau was obtained within 20 min when test compound was added cumulatively to relax the muscle strip. EC50 values were obtained for each agonist in tissues from 5 rats.

5-HT3 = assay: Bezold-Jarisch Reflex (5-HT-induced bradycardia in anesthetized mice); type: in vivo; details: i.p., 30 min before 5-HT (0.25 mg/kg i.v.), >50 percent reduction in bradycardic response vs vehicle
Procedure: as §1
The compound to be evaluated was administered i.p. (mg/kg) to a group of 3 mice.
This method has been described by Saxena, P. R. and Lawang, A., Arch. Int. Pharmacodyn., 277:235-252, 1985.

5-HT3 receptor = molecular target: T2, 5-HT3 receptor (Rattus norvegicus, UniProt P35563); assay: Serotonin (5-HT3) radioligand receptor binding, [3H]-GR65630, rat brain cortex membranes
T2 construct: Brain cortices were obtained from male rats and a membrane fraction prepared by standard techniques; from tissue; host or cells: rat brain cortex membranes (male rats)
T2 sequence (P35563 24-483): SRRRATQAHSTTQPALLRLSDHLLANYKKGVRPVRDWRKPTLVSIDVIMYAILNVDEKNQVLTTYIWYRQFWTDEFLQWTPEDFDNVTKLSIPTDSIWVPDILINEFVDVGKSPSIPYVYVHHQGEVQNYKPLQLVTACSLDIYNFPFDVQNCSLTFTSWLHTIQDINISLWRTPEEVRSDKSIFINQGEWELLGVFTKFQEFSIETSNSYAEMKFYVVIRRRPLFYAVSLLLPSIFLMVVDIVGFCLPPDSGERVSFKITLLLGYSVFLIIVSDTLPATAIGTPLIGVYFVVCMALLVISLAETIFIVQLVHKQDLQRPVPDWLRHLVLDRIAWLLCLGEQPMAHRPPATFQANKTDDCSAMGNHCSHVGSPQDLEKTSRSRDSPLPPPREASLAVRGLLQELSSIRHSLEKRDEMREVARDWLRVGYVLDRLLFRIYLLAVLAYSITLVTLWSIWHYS
Procedure: as §1
GR65630 binds to the 5-HT3 receptor. Brain cortices were obtained from male rats and a membrane fraction prepared by standard techniques. 0.04 mg of membrane prep was incubated with 0.2 nM […] for 60 minutes at 22° C. […] Kilpatrick G. J., Jones B. J. and Tyers M. B. Identification and distribution of 5-HT3 receptors in rat brain using radioligand binding assay. Nature, 330: 746-748, 1987.

SMILES | Minimum Effective Dose (MED) (5-HT3) [mg/kg] | other results
CC(C)n1c(=O)n(C(=O)NC[C@@H]2CCN3CCC[C@@H]23)c2ccccc21 (relative stereo) [Example 23, cis-N-[(hexahydro-1H-pyrrolizin-1-yl)methyl]-2,3-dihydro-3-(1-methylethyl)-2-oxo-1H-benzimidazole-1-carboxamide] | 1 | EC50 (5-HT4 receptor): 374 nM; Ki (5-HT3 receptor): 75 nM
CN1C2CCCC1CC(NC(=O)c1nn(C)c3ccccc13)C2 (stereo not drawn) [BRL-43694] | 0.05 | –
CC(C)n1c(=O)n(C(=O)NCCC23CCCN2CCC3)c2ccccc21 [Example 13, N-[2-(hexahydro-7aH-pyrrolizin-7a-yl)ethyl]-2,3-dihydro-3-(1-methylethyl)-2-oxo-1H-benzimidazole-1-carboxamide] | 10 | –
CC(C)n1c(=O)n(C(=O)NC2C3CC4CC2CN(C4)C3)c2ccc(Cl)cc21 (stereo not drawn) [Example 17, N-(1-azatricyclo[3.3.1.1^3,7]decan-4-yl)-5-chloro-2,3-dihydro-3-(1-methylethyl)-2-oxo-1H-benzimidazole-1-carboxamide] | – | inhibition at 10 µM (5-HT3 receptor; 1 h, read-out: Effect of Compounds on [H]-GR65630 Bound (0.2 nM), % @ 10,000 nM): 41%
CC(C)n1c(=O)n(C(=O)NC2C3CC4CC2CN(C4)C3)c2cc(Cl)ccc21 (stereo not drawn) [Example 22B, N-(1-azatricyclo[3.3.1.1^3,7]decan-4-yl)-6-chloro-2,3-dihydro-3-(1-methylethyl)-2-oxo-1H-benzimidazole-1-carboxamide] | – | Ki (5-HT3 receptor): 4.9 nM
Cc1nc[nH]c1CCC(=O)c1cn(C)c2ccccc12 [GR65630] | – | % Specific Binding (5-HT3 receptor; radioligand, non-specific binding in the presence of 1 uM ICS 205-930): 70%
O=c1[nH]c2ccccc2n1CCCN1CCC(n2c(=O)[nH]c3cc(Cl)ccc32)CC1 [domperidone] | > 10 | –
CCC(CO)NC(=O)C1C=C2c3cccc4c3c(cn4C)CC2N(C)C1 (stereo not drawn) [methylsergide] | > 10 | –
CCN(CC)CCNC(=O)c1cc(Cl)c(N)cc1OC [metoclopramide] | 5 | –
CN1[C@@H]2C[C@@H](OC(=O)[C@H](CO)c3ccccc3)C[C@H]1[C@@H]1O[C@@H]12 [scopolamine] | 2.5 | –
